Measured values from patent US12310950B2, “Formulations of pyrrolopyridine-aniline compounds” (NFLECTION THERAPEUTICS, INC., priority 2021, dated 2025).
Entries after “also recorded” stand apart in the source; their conditions may differ. One block for each compound: values may come before it.

What was measured:
[1] = test system: p-ERK; experiment: Minipig non-GLP 28-day dermal tolerability study: p-ERK suppression in skin; type: in vivo; settings: Compound 1.003 in gel formulation (NA-1a), 0.01% and 0.1%, 28 days
Experimental: Non-GLP 28-Day Dermal Tolerability Study: 4 doses of A-D formulations applied to each of 4 pigs (2 females, 2 males), where A: vehicle (NA-1a without Compound 1.003) at 30 uL/cm^2; B: NA-1a-0.01% at 10 uL/cm^2; C: NA-1a-0.1% at 30 uL/cm^2; and D: NA-1a-0.1% at 10 uL/cm^2. Minipigs were treated […] for 28 days. Biopsy obtained 4 hours after last dose on Day 28.

[2] = test system: p-ERK; experiment: p-ERK suppression in rat skin by oral administration; type: in vivo
Experimental: p-ERK suppression in rat skin was evaluated by oral administration of Compound 1.003.

[3] = test system: phosphorylated-ERK1/2 (pERK); experiment: Human cSCC explant: immunohistochemistry for p-ERK; type: cell-based; settings: 0.1% Compound 1.003 in NA-1a gel formulation on epidermal surface for 4 hours, vs vehicle
[4] = test system: COLO 16; experiment: CellTiter-Glo Luminescent Cell Viability Assay, SCC cells COLO 16; type: cell-based, human; settings: 72 hours, 0.01-30 μM, compared to NHEK
[5] = test system: ICI; experiment: CellTiter-Glo Luminescent Cell Viability Assay, SCC cells ICI; type: cell-based, human; settings: 72 hours, 0.01-30 μM, compared to NHEK
[6] = test system: cSCC; experiment: UV-driven mouse model of cSCC, chemoprevention study: number of tumors; type: in vivo, Hairless SKH-1E mice
Experimental: 136, no. 9, 2016, pp. 1920-1924 by Adelmann, C. H., et al., the entirety of which is incorporated herein by reference for all purposes. UV radiation was administered using a solar simulator (Oriel) metered at 12.5 kJ/m^2 UVB weekly, 3.4 SED for three months on Hairless SKH-1E mice.
Samples: The gel formulation (NA-1a) including Compound 1.003 in an amount of 0.1%, 0.5%, 1.0%, and 2.3% by weight of the formulation was used in the study.
(§1) A UV-driven mouse model was used to test if a topical formulation including Compound 1.003 could be used to reduce tumor burden in vivo. […] Once a mouse developed one tumor that measured 3 mm in diameter, they were randomly assigned to receive Vehicle, 0.1% Compound 1.003, 0.5% Compound 1.003, 1.0% Compound 1.003, or 2.3% Compound 1.003. Once enrolled, mice were treated with 200 uL of vehicle or the gel formulation of Compound 1.003. Drug was evenly applied to the back skin of the mouse and allowed to dry. Mice were treated for 30 days (5 d/week). […] Skin biopsies were obtained 4 hours after drug treatment at end of study.

[7] = test system: p-ERK1/2; experiment: UV-driven mouse model of cSCC: nano-immunoassay for p-ERK1/2 and total ERK1/2 in skin biopsies; type: in vivo, Hairless SKH-1E mice
Experimental: as §1

[8] = UV-driven mouse model of cSCC: tolerability (skin, body weight); type: in vivo, Hairless SKH-1E mice; settings: topical 0.1%-2.3%, 30 days
Experimental: as §1

[9] = test system: cSCC; experiment: UV-driven mouse model of cSCC, split-mouse study: total tumor burden; type: in vivo, Hairless SKH-1E mice; settings: split-control, 1.0% Compound 1.003 on one side, vehicle on the other, 30 days, n=5
Experimental: To internally control for potential systemic exposure, 5 mice were treated in split-control fashion with one side getting vehicle only and the other side of the same mouse receiving topical 1.0% Compound 1.003. Total tumor burden (summed volume) is quantified in untreated vs. treated sides at the beginning (black) as compared to the end of treatment 30 days later (n=5).
To definitively address the possibility of systemic exposure and non-local effects of topically applied Compound 1.003, 5 mice was treated in split-control fashion with one side with vehicle only and the other side with 1.0% Compound 1.003.

[10] = test system: p-ERK; experiment: Ex vivo human cutaneous neurofibroma explants (Example 16): p-ERK by Western Blot; type: cell-based; settings: Compound 1.003 0.5% and 1.5%, topical on explant, 4 hours
Experimental: Biopsies of cutaneous neurofibroma were taken from patients undergoing excision of neurofibromas for clinical purposes. The ex vivo human explant model was established by incubating sections of biopsies of human cutaneous neurofibroma. Cutaneous Neurofibroma samples were removed from patients, transferred immediately to the lab in 15 ml […] tubes containing 5 ml DMEM/F-12 medium (Thermo Fisher, Cat #11320033) supplemented with 1XB27 supplement (Gibco™ B-27™ Supplement (50×) serum free (Cat #17504044), 2.5 μg/ml of Amphotericin B (Thermo Fisher, Cat #15290018), and 50 units/ml of Penicillin-50 μg/ml of Streptomycin (Thermo Fisher, Cat #15070063), and 10% human serum (Gemini 100-110). Skin samples divided to smaller 3-4 mm pieces and placed dermal side down onto membranes (Transwell Permeable Supports, 12 well plate, Corning 12 mm Transwell® with 3.0 μm Pore Polycarbonate Membrane Insert, Sterile Corning #3402). The edges of the samples were sealed with semisoft 3% agarose (Sigma, CAS 9012-36-6) prepared in DMEMF-12 medium, and the apical surface was kept in contact with air to use formulations. […]
Western Blot analysis: Frozen skin samples were thawed on ice and weighed. […] The lysate protein concentration was determined by the BCA protein assay kit using bovine serum albumin (BSA) as standards. […]

[11] = test system: p-ERK; experiment: Ex vivo cutaneous neurofibroma explants (Example 20): p-ERK by immunohistochemistry; type: cell-based, human; settings: 3 μl of gel formulation on explant; 0.1% or 0.5% by weight
Experimental: The study was conducted using a protocol similar to Example 16 with some modifications as described below.
Skin samples divided to smaller 3-4 mm pieces and placed dermal side down onto membranes. The edges of the samples were sealed with semisoft 3% agarose prepared in DMEMF-12 medium, and the apical surface was kept in contact with air to use formulations. The basal surface was in contact with the growth medium DMEMF-12 containing 10% human serum, Amphotericin B, Penicillin-Streptomycin and 1XB27. This set up enables testing of transdermal drug delivery while the tissues remain viable in the medium for the duration of the test. 3 μl of the test formulation was used.
Immunohistochemistry: Immunohistochemistry for p-ERK was performed using standard operating procedures and fully automated workflow.
3 μl of the test formulation was used.

[12] = in vivo; settings: rat, po, 300 mg/kg/day
[13] = systemic exposure; cited from earlier work

Cmax [12]: ~1360 ng/mL
SMILES: Cn1c(Nc2ccc(I)cc2F)c(C(=O)NOCCO)c2cccnc21 [Compound 1.003]
suppression of p-ERK in minipig skin (FIG. 1) [1]: dose dependent suppression of p-ERK
change of p-ERK after oral administration (FIG. 2) ([2]; rat skin, oral, various doses): no change of p-ERK
suppression of p-ERK in the skin ([2]; rat, 21-days of oral administration at 300 mg/kg/day): not observed
suppression of p-ERK in human cSCC specimens (immunohistochemistry) [3]: robust suppression of p-ERK
cell viability, COLO 16 [4]: dose dependent reduction in cell viability
cell viability, ICI [5]: dose dependent reduction in cell viability
number of tumors at the end of treatment, 0.1% ([6]; 0.1% in gel (NA-1a), 30 days, n=10 mice, vehicle 60 tumors): 31 tumors
number of tumors at the end of treatment, 0.5% ([6]; 0.5% in gel (NA-1a), 30 days, n=10 mice, vehicle 60 tumors): 23 tumors
suppression of new tumors at 1.0% dose and above ([6]; 1.0% dose and above, 30 days, n=10 per group): near complete suppression of new tumors
number of tumors at the end of treatment, 1.0% ([6]; 1.0% in gel (NA-1a), 30 days, n=10 mice, vehicle 60 tumors): 13 tumors
number of tumors at the end of treatment, 2.3% ([6]; 2.3% in gel (NA-1a), 200 uL, 30 days (5 d/week), n=10 mice, vehicle 60 tumors): 16 tumors
total tumors / new tumor formation (FIG. 5) ([6]; gel formulation (NA-1a), 0.1%-2.3%, 30 days): dramatically suppresses new tumor formation; also recorded: suppression of total tumors
decrease in the total number of tumors present at the end of treatment ([6]; highest doses of Compound 1.003, vs vehicle): approximately 4 fold
p-ERK levels in skin biopsies (nano-immunoassay) ([7]; 0.1% and greater vs vehicle, biopsies 4 hours after drug treatment at end of study): suppression of p-ERK levels
suppression of p-ERK levels in mouse skin (FIG. 6B, text) ([7]; concentrations 0.6 or greater (so in the source), in %): ≥ 65
suppression of p-ERK levels in mouse skin (FIG. 6B legend) ([7]; mouse skin treated with Compound 1.003): ≥ 65%
skin peeling or erosions [8]: No skin peeling or erosions were observed
weight loss (biweekly weight measurement) [8]: no weight loss
total tumor volume / tumor burden on the treated side [9]: Substantial tumor regression and tumor suppression; also recorded: decreased to nearly undetectable levels
suppression of p-ERK by Western Blot analysis [10]: complete suppression of p-ERK
suppression of p-ERK by immunohistochemistry [11]: Dose dependent suppression

SMILES: O=C1CCCc2c1sc(Nc1ccc(I)cc1F)c2C(=O)NOCCO [Compound 2.003]
suppression of p-ERK by immunohistochemistry [11]: Dose dependent suppression

SMILES: O=C(NOC[C@H](O)CO)c1ccc(F)c(F)c1Nc1ccc(I)cc1F [PD0325901]
side effects in clinical trials [13]: neurological side effects associated with ataxia, confusion, and syncope
